Here are results for 19 compounds from ChEMBL document CHEMBL1127158, “1,3-dithianes with acid functionalities: potent inhibitors and candidate affinity probes for the gaba-gated chloride channel” (Bioorg Med Chem Lett, 1993).

The test has as its target GABA-A receptor; anion channel. Nature of the test: Inhibition of [3H]EBOB binding at GABA-gated chloride channel NCB site in bovine brain membranes. The class given is cell membranes, Bos taurus.

As usually defined, the IC50 is the concentration that gives 50% inhibition. Low readings indicate higher potency, high ones lower potency. In turn, `CC(C)(C)C1CSC(c2ccc(C#CCO)cc2)SC1` (centres undefined) registered an IC50 of 76 nM.
The figure for `CC(C)(C)C1CSC(c2ccc(C#CCCC(=O)C=[N+]=[N-])cc2)SC1` (centres undefined) is 830 nM; for `CC(C)(C)C1CSC(c2ccc(C#CCCCO)cc2)SC1` (centres undefined) it is 410 nM; for `CCC#Cc1ccc(C2SCC(C(C)(C)C)CS2)cc1` (centres undefined) it is 690 nM.
The figure for `CC(C)(C)C1CSC(c2ccc(C#CC(=O)C=[N+]=[N-])cc2)SC1` (centres undefined) is 690 nM; for `CCCC#Cc1ccc(C2SCC(C(C)(C)C)CS2)cc1` (centres undefined) it is 6700 nM.
The figure for `CC#Cc1ccc(C2SCC(C(C)(C)C)CS2)cc1` (centres undefined) is 35 nM; for `CC(C)(C)C1CSC(c2ccc(C#CCCP(=O)(O)O)cc2)SC1` (centres undefined) it is 10 nM; for `CC(C)(C)C1CSC(c2ccc(C#CCC(=O)O)cc2)SC1` (centres undefined) it is 23 nM.
The compound `CCOC(=O)CC#Cc1ccc(C2SCC(C(C)(C)C)CS2)cc1` (centres undefined) came in with an IC50 of 460 nM.
Under `CC(O)C#Cc1ccc(C2SCC(C(C)(C)C)CS2)cc1` (centres undefined) stands 3100 nM.
Under `COC(=O)C#Cc1ccc(C2SCC(C(C)(C)C)CS2)cc1` (centres undefined) stands 9 nM; under `C#Cc1ccc(C2SCC(C(C)(C)C)CS2)cc1` (centres undefined), 21 nM; under `CCOP(=O)(CCC#Cc1ccc(C2SCC(C(C)(C)C)CS2)cc1)OCC` (centres undefined), 3000 nM.
Under `COC(=O)CCC#Cc1ccc(C2SCC(C(C)(C)C)CS2)cc1` (centres undefined) stands 17 nM.
Consider `CC(C)(C)C1CSC(c2ccc(C#CCCC(=O)O)cc2)SC1` (centres undefined), for which the half-maximal inhibitory concentration (IC50) turned out to be 5 nM.
The figure for `CC(C)(O)C#Cc1ccc(C2SCC(C(C)(C)C)CS2)cc1` (centres undefined) is above 10000 nM.
The compound `CC(C)(C)C1CSC(c2ccc(C#CCCO)cc2)SC1` (centres undefined) returned a 50% inhibitory concentration (IC50) of 400 nM.
The figure for `CC(C)(C)C1CSC(c2ccc(C#CC(=O)O)cc2)SC1` (centres undefined) is 7 nM.
